Where two headings read alike, the source gives them in different places.
How the values were obtained:
[1] = target: T1, human glutaredoxin (Grx1) (Homo sapiens, UniProt P35754); experiment: Mass Spectroscopy of Grx-Tavocept reaction; assay type: binding; conditions: 40 mM Tavocept, 4° C. overnight
T1 construct: 6xHis (TEV-cleavable) (N, cleaved yes); made in house; host or cells: E. coli BL21 (RIPL)

ROS1 kinase = ROS1 kinase (Homo sapiens, UniProt P08922); experiment: ROS1 kinase assays; assay type: biochemical; set-up: Recombinant human ROS1 kinase (residues 1883-2347), containing an N-terminal GST tag; purchased SignalChem; host or cells: Sf9 insect cells (baculovirus)
WT EGFR kinase [2] = target: T2, WT EGFR kinase (Homo sapiens, UniProt P00533)
WT EGFR kinase [3] = target: T2, WT EGFR kinase; experiment: WT EGFR kinase assay (ADP-glo)
Recombinant human Trx [4] = target: T3, Recombinant human Trx (Homo sapiens, UniProt P10599); assay type: biochemical; set-up: 6xHis (N); purchased Sigma (Trx); American Diagnostica (bovine TrxR); conditions: Reaction B; disulfide 0.5 mM
T3 sequence (P10599 1-105): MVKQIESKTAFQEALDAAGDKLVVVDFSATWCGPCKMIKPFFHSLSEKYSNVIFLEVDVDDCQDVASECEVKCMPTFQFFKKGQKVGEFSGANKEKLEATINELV
Method: See, Luthman M and Holmgren A. Rat liver thioredoxin and thioredoxin reductase: purification and characterization. […] All disulfides were added to reactions as 10x solutions in buffer. The total volume of each reaction was 0.1 mL. Reactions were initiated by the addition of TrxR and were incubated at 25° C. for 40 minutes. Reactions were analyzed using a Molecular Devices SpectraMax Plus UV/vis plate reader and the activity was calculated using a 4 minute linear portion of each assay.

γ-Glutamyltranspeptidase = γ-Glutamyltranspeptidase (Homo sapiens, UniProt P19440); experiment: γ-glutamyltranspeptidase enzyme activity (summary Table 27); assay type: biochemical
FTase = target: T4, FTase (Homo sapiens, UniProt P49354+P49356); experiment: FTase-mediated farnesylation of Dansyl-GCVLS peptide; assay type: biochemical
T4 construct: purchased Abcam

human cancer cell lines = experiment: Interference with paclitaxel- and platinum-induced cytotoxicity; assay type: cell-based
Description: (§1) Tavocept mediates the non-enzymatic xenobiotic modification of sulfur-containing amino acid residues (e.g., cysteine) on proteins. As an engineered, non-naturally occurring agent (i.e., xenobiotic), Tavocept is autocatalytic and requires no protein cofactor to cause the xenobiotic modification of cysteine, but appears to be specific for cysteine residues located within a particular structural context (i.e., not all cysteines in a protein are so modified). Tavocept-mediated, xenobiotic modification represents a novel mechanism of action for a cancer treating agent and can be compared to a degree with post-translational modifications of cysteine residues in proteins (see, Table 3, below).

Recombinant human Trx [5] = target: T3, Recombinant human Trx; experiment: Native PAGE of Trx incubated with Tavocept; assay type: binding; set-up: purchased Sigma (SigmaAldrich); host or cells: E. coli; conditions: Tavocept 10 mM, 37° C., 0-48 hours
Method: (§2) Recombinant human Trx (1.5 mg, SigmaAldrich) was reduced using a vast excess of DTT (50 mM) in Tris buffer (100 mM, pH 8.0) at 37° C. for 50 minutes. […] (final reactions volumes were approximately 160 μL). At time selected times (0-48 hours), aliquots were removed and subjected to TrisGlycine Native or TrisGlycine SDS PAGE analysis. Gels were fixed in acetic acid/methanol and stained with Coomassie R-250.
as §2, with “mg)” for “mg, SigmaAldrich)”, “incubation reaction” for “reactions”

[6] = system: human breast, ovarian and lymphoma cancer cell lines; experiment: Interference with paclitaxel induced apoptosis (PARP cleavage, Bcl-2 phosphorylation, DNA laddering); assay type: cell-based
Description: as §1

Peroxiredoxin (Prx) = target: T5, Peroxiredoxin (Prx) (Homo sapiens, UniProt Q06830); experiment: Peroxiredoxin activity (summary Table 27); assay type: biochemical; conditions: disrupts active site structure
T5 construct: purchased SigmaAldrich

[7] = read-out: inhibition of WT EGFR kinase activity

ROS1 kinase, sequence (P08922 1883-2347): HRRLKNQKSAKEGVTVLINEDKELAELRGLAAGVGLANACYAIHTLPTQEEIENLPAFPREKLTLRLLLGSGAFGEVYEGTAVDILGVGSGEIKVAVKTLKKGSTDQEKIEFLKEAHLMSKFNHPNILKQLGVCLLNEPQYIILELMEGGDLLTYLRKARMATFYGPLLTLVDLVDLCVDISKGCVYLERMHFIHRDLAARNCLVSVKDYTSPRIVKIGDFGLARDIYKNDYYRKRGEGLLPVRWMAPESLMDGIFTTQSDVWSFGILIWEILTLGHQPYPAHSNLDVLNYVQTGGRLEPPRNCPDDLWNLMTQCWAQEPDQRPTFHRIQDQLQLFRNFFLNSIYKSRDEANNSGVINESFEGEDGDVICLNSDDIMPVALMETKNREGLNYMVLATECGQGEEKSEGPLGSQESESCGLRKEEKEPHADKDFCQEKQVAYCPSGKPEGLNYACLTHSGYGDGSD
T2 sequence (P00533 25-1210): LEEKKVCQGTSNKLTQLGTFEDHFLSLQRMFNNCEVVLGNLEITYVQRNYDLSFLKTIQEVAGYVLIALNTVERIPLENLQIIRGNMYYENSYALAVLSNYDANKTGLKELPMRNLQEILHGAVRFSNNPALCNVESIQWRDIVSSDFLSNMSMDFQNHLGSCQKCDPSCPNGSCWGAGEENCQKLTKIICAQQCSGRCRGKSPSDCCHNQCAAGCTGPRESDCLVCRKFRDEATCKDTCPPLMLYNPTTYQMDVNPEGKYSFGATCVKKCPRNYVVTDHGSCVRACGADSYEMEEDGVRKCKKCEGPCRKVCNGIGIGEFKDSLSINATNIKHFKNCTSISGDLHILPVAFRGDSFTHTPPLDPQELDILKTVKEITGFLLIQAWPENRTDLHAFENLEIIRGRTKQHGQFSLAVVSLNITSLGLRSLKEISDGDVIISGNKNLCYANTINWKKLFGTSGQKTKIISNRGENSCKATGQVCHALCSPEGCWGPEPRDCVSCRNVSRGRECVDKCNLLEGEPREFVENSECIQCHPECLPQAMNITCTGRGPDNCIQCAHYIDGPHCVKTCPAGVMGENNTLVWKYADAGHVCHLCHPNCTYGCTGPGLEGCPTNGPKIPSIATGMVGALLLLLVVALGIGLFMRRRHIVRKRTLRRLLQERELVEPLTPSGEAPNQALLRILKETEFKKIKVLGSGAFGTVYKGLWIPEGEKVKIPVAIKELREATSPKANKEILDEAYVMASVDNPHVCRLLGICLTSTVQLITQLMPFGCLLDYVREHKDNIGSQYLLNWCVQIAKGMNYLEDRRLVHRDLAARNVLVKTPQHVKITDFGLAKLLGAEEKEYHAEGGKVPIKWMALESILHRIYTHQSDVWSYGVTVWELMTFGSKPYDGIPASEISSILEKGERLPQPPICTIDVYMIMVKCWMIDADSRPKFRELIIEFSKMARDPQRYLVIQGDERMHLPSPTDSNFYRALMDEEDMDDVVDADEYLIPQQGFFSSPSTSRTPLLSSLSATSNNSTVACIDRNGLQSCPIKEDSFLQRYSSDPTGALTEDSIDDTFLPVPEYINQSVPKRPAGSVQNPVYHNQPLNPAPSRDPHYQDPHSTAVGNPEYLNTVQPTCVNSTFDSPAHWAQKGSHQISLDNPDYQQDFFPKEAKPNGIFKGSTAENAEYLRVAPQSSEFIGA
γ-Glutamyltranspeptidase, sequence (P19440 whole entry): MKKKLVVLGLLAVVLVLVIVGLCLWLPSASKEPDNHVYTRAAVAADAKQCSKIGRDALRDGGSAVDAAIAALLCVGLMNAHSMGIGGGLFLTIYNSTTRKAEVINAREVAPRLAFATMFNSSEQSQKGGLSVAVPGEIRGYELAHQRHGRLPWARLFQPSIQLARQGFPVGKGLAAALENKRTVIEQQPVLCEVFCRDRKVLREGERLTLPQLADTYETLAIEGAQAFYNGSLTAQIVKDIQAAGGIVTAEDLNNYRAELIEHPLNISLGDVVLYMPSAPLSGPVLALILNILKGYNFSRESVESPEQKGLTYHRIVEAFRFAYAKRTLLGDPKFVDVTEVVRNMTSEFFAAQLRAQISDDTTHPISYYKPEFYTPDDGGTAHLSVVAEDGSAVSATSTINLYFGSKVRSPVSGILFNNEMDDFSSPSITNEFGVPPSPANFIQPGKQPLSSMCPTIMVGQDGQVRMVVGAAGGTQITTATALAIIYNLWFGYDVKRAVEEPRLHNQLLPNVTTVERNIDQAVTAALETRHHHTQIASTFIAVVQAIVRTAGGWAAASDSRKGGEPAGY
T5 sequence (Q06830 whole entry): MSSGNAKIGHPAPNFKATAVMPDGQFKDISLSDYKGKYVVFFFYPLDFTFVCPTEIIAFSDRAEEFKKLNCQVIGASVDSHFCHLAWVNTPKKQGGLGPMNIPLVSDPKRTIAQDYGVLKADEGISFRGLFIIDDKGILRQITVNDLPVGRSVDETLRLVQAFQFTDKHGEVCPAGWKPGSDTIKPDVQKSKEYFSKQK
T4 sequence (P49356 whole entry, one chain of several): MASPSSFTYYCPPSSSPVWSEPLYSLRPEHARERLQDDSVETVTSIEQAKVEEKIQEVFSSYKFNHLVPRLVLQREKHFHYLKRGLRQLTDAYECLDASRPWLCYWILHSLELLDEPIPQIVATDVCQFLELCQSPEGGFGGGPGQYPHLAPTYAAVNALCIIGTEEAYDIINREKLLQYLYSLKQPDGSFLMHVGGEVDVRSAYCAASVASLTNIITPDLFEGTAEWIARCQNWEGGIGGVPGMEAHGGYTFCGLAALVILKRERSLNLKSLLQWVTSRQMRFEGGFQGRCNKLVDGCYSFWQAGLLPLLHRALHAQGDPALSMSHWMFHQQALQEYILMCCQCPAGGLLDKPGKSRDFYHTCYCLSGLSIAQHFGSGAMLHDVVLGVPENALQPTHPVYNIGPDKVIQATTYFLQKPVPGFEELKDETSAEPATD
T1 sequence (P35754 whole entry): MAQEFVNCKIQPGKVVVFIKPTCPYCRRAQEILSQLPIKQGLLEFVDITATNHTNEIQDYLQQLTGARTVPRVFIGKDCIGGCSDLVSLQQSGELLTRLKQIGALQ

Structure (SMILES): O=S(=O)([O-])CCSSCCS(=O)(=O)[O-].[Na+].[Na+] [Tavocept, disodium 2,2′-dithio-bis-ethane sulfonate]
- Tavocept-derived mesna adducts per molecule of Grx [1]: one to two
- Inhibition of ROS1 kinase (ROS1 kinase): directly inhibit ROS1 kinase in a time-dependent manner
- Effect on Crizotinib inhibition of ROS1 kinase (ROS1 kinase; Tavocept incubated with ROS1 kinase prior to initiation of the kinase assays): potentiation of Crizotinib inhibition
- Modification of ROS1 kinase (ROS1 kinase; time dependent): BNP7787 xenobiotically modifies ROS1 kinase in
- inhibition (WT EGFR kinase [2]): 9%
- potentiation of Erlotinib inhibition of WT EGFR kinase activity (WT EGFR kinase [3]; 10 μM ATP): slightly potentiated
- inhibition of WT EGFR kinase (WT EGFR kinase [3]; 100 μM ATP, physiological concentrations (<20 mM)): did not notably inhibit
- IC50 (WT EGFR kinase [3]; IC50 on WT EGFR kinase activity, 10 μM ATP): 24.3 ± 3.7 mM
- IC50 (WT EGFR kinase [3]; IC50 on WT EGFR kinase activity, 100 μM ATP): ≥ 40 mM
- IC50 (WT EGFR kinase [3]; read-out: IC50 on WT EGFR kinase activity, 10 μM ATP): 24.3 mM
- inhibition at 10000 µM (WT EGFR kinase [3]; [7]): 39%
- inhibition at 20000 µM (WT EGFR kinase [3]; [7]): 44%
- Reduction of disulfide by Trx in the presence of TrxR and NADPH (Recombinant human Trx [4]): readily reduced
- Effect on γ-glutamyltranspeptidase enzyme activity (γ-Glutamyltranspeptidase): heteroconjugates can inhibit γ-glutamyl-
- effect on FTase activity (FTase): Inhibition
- interference with paclitaxel- and platinum-induced cytotoxicity (human cancer cell lines): not to interfere
- Tris-glycine native gel electrophoresis profile of Trx (Recombinant human Trx [5]): altered Tris-glycine native gel electrophoresis profile
- interference with paclitaxel induced apoptosis [6]: does not interfere
- Effect on Prx (Peroxiredoxin (Prx)): resulting in impaired enzyme activity

From US20160106439A1, “PNEUMATIC TOURNIQUET” (BIONUMERIK PHARMACEUTICALS, INC., priority 2013, published 2016)
